This passage reports pest or weed control results from patent US20210053957A1, “HERBICIDAL COMPOUNDS” (SYNGENTA PARTICIPATIONS AG, priority 2018, published 2021).

What all share (assay): Post-emergence efficacy, glasshouse spray test
What all share (assay type): in vivo

Assay [1] concerns Digitaria sanguinalis (DIGSA). The settings on record: Digitaria sanguinalis, post-emergence, 312 h; Application Rate 500 g/Ha; evaluated after 13 days; read-out: Control of weed species after post-emergence application, DIGSA (100=total damage to plant; 0=no damage to plant). Summed up:
(§1)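 Each value is a visual injury score (0 none, 100 total) read 13 days post-application. Plants were 14 days old at spraying and kept at 24/16° C, 14 h light.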

The subject of assay [2] is Amaranthus palmeri (AMAPA). To be noted: Amaranthus palmeri, post-emergence, 312 h; Application Rate 500 g/Ha; evaluated after 13 days; read-out: Control of weed species after post-emergence application, AMAPA (100=total damage to plant; 0=no damage to plant). A digest of the protocol:
as §1

For assay [3], the system named is Setaia fabei (SETFA). To be noted: Setaria faberi, post-emergence, 312 h; Application Rate 500 g/Ha; evaluated after 13 days; read-out: Control of weed species after post-emergence application, SETFA (100=total damage to plant; 0=no damage to plant). A digest of the protocol: as §1
Assay [4] concerns Chenopodium album (CHEAL). To be noted: Chenopodium album, post-emergence, 312 h; Application Rate 500 g/Ha; evaluated after 13 days; read-out: Control of weed species after post-emergence application, CHEAL (100=total damage to plant; 0=no damage to plant). A digest of the protocol:
as §1

In assay [5] the test system is Ipomoea hederacea (IPOHE). To be noted: Ipomoea hederacea, post-emergence, 312 h; Application Rate 500 g/Ha; evaluated after 13 days; read-out: Control of weed species after post-emergence application, IPOHE (100=total damage to plant; 0=no damage to plant). Summed up: as §1
Assay [6] concerns Euphorbia heterophylla (EPHHL). The settings on record: Euphorbia heterophylla, post-emergence, 312 h; Application Rate 500 g/Ha; evaluated after 13 days; read-out: Control of weed species after post-emergence application, EPHHL (100=total damage to plant; 0=no damage to plant). A digest of the protocol:
as §1

Assay [7] deals with Lolium perenne (LOLPE). The settings on record: Lolium perenne, post-emergence, 312 h; Application Rate 500 g/Ha; evaluated after 13 days; read-out: Control of weed species after post-emergence application, LOLPE (100=total damage to plant; 0=no damage to plant). A digest of the protocol: as §1
The test system of assay [8] is Echinochloa crus-galli (ECHCG). To be noted: Echinochloa crus-galli, post-emergence, 312 h; Application Rate 500 g/Ha; evaluated after 13 days; read-out: Control of weed species after post-emergence application, ECHCG (100=total damage to plant; 0=no damage to plant). Summed up:
as §1

The subject of assay [9] is Eleusine indica (ELEIN). The settings on record: Eleusine indica, post-emergence, 312 h; Application Rate 500 g/Ha; evaluated after 13 days; read-out: Control of weed species after post-emergence application, ELEIN (100=total damage to plant; 0=no damage to plant). Summed up: as §1

`Cc1nnc(-c2cc[n+](CCC(=O)O)nc2)o1` [Compound A140]: the pest or weed control at 500 g/ha worked out at 70% in assay [1]; 10% in assay [2]; 70% in [3]; 0% in assay [4]; 0% in assay [5]; 0% in assay [6]. Moreover, the pest or weed control at 500 g/ha in assay [7] stood at 10%; in [8] it was 20%; in assay [9] it was 90%.
As to `Nc1nsc(-c2cc[n+](CCS(=O)(=O)[O-])nc2)n1` [Compound A141], the pest or weed control at 500 g/ha is 10% in [1]; 100% in assay [2]; 50% in [3]; 100% in assay [4]; 100% in assay [5]; 100% in assay [6]. Further, the pest or weed control at 500 g/ha amounted to 30% in assay [7], 30% in assay [8] and 10% in assay [9].
On to `O=C(O)CC[n+]1ccc(-c2ncsn2)cn1` [Compound A142, 3-[4-(1,2,4-thiadiazol-3-yl)pyridazin-1-ium-1-yl]propanoic acid 2,2,2-trifluoroacetate], for which the pest or weed control at 500 g/ha was 100% in assay [1]; 100% in assay [2]; 90% in assay [3]; 90% in assay [4]; 30% in assay [5]; 100% in assay [6]. Also, the pest or weed control at 500 g/ha in [7] was 90%; in assay [8] it was 100%; in [9] it was 100%.
Regarding `O=S(=O)([O-])CC[n+]1ccc(-c2ncsn2)cn1` [Compound A143], the pest or weed control at 500 g/ha in [1] worked out at 100%; in assay [2], 100%; in assay [3] it was 90%; in assay [4] it was 90%; in [5], 60%; in assay [6], 100%. The pest or weed control at 500 g/ha in assay [7], in [8] and in assay [9] was 100% throughout.
